In patent US20100099845A1, “PROTECTED ENANTIOPURE TRIFLUOROTHREONINES AND METHODS OF MAKING AND USING SAME” (University of Utah Research Foundation, priority 2006, published 2010):

Assays:
[1] = literature values of Kovacs, Mant, Hodges 2006; cited from earlier work
[2] = Relative hydrophobicity by reversed-phase HPLC retention time (method of Hodges and coworkers); assay type: physicochemical; conditions: for retention time, tR (measure of hydrophobicity): Kromasil C18, 0.2% TFA water/ACN linear gradient 0.25% ACN/min from 55% B, 0.3 mL/min, 25° C., co-injection, FIG. 4; for retention time difference ΔtR relative to allo-D-Thr/allo-L-Thr pair: same reversed-phase HPLC conditions, CF3 vs CH3
Experimental: As fluorination can decrease the hydrophilicity of a molecule [(a) Böhm, H-J.; Banner, D.; Bendels, S.; Kansy, M.; Kuhn, B.; Müller, K.; Obst-Sander, U.; Stahl, M. Chem BioChem. 2004, 5, 637-643. […] 1996, 276, 1049-1057.], the hydrophobicity of Fmoc-tfT (1a and 1b) relative to their non-fluorinated counterparts was determined. The chromatography method developed by Hodges and coworkers [Kovacs, J. M.; Mant, C. T.; Hodges, R. S. Biopolymers (Peptide Science) 2006, 84, 283-297.], who determined the relative hydrophobicity of 23 L-amino acids and their D-enantiomers, was used. As pointed out by Hodges and coworkers [Kovacs, J. M.; Mant, C. T.; Hodges, R. S. Biopolymers (Peptide Science) 2006, 84, 283-297.], a criterion for measuring true hydrophobicity of an amino acid is that the D/L enantiomers should give the same retention time, tR. […] All of the enantiomeric pairs, allo-D-Thr/allo-L-Thr (tR=7.2 min), D-Thr/L-Thr (tR=9.2 min) and allo-D-tfT/allo-L-tfT (tR=11.6 min), co-elute, satisfying the criterion established by Hodges and coworkers. [Kovacs, J. M.; Mant, C. T.; Hodges, R. S. Biopolymers (Peptide Science) 2006, 84, 283-297.] In reversed-phase chromatography, a larger retention time typically indicates a more hydrophobic molecule. The allo-D-tfT/allo-L-tfT pair is more retentive than the allo-D-Thr/allo-L-Thr pair (ΔtR=11.6−7.2=4.2 min). […] [Kovacs, J. M.; Mant, C. T.; Hodges, R. S. Biopolymers (Peptide Science) 2006, 84, 283-297.]
In FIG. 4, all chromatography runs followed exactly the same conditions used by Hodges and coworkers [Zhang, X. G.; Ni, W. J.; van der Donk, W. A. J. Org. Chem. 2005, 70, 6685-6692.]. The HPLC conditions are as follows: column, Kromasil C18 (150 mm×2.1 mm I.D., 5 μm, 100 Å pore size, Higgins Analytical, Inc., CA); mobile phase, A: 0.2% TFA (trifluoroacetic acid) in water, B: 0.2% TFA in ACN (acetonitrile); condition, linear AB gradient (0.25% ACN/min, starting from 55% B); flow rate, 0.3 mL/min; temperature, 25° C. 1a and 1b were purified by silica-gel column chromatography and dissolved in mobile phase B before injection. allo-D-N-Fmoc-O-tert-butyl-Thr and allo-L-N-Fmoc-O-tert-butyl-Thr were from BACHEM California Inc. D-N-Fmoc-O-tert-butyl-Thr and L-N-Fmoc-O-tert-butyl-Thr were from Novabiochem.

SMILES | retention time, tR (measure of hydrophobicity) [2] | further results
C[C@H](N)C(=O)O [Ala] | – | retention time difference ΔtR relative to Gly [1]: 2.8 min
N[C@@H](CS)C(=O)O [Cys, cysteine] | – | retention time difference ΔtR relative to Ala [1]: 4.8 min
C[C@H](OC(C)(C)C)[C@@H](NC(=O)OCC1c2ccccc2-c2ccccc21)C(=O)O [D-Thr, (2R,3S)-N-Fmoc-O-tert-butyl-threonine] | 9.2 min | –
C[C@@H](OC(C)(C)C)[C@H](NC(=O)OCC1c2ccccc2-c2ccccc21)C(=O)O [L-Thr, (2S,3R)-N-Fmoc-O-tent-butyl-threonine] | 9.2 min | –
CC(C)[C@H](N)C(=O)O [Val] | – | retention time difference ΔtR relative to Ala [1]: 10.6 min
C[C@@H](OC(C)(C)C)[C@@H](NC(=O)OCC1c2ccccc2-c2ccccc21)C(=O)O [allo-D-Thr, (2R,3R)-N-Fmoc-O-tert-butyl-threonine] | 7.2 min | –
CC(C)(C)O[C@@H]([C@@H](NC(=O)OCC1c2ccccc2-c2ccccc21)C(=O)O)C(F)(F)F [allo-D-tfT, (2R,3S)-2-(((9H-fluoren-9-yl)methoxy)carbonylamino)-3-tert-butoxy-4,4,4-trifluorobutanoic acid] | 11.6 min | retention time difference ΔtR relative to allo-D-Thr/allo-L-Thr pair [2]: 4.2 min
C[C@H](OC(C)(C)C)[C@H](NC(=O)OCC1c2ccccc2-c2ccccc21)C(=O)O [allo-L-Thr, (2S,3S)-N-Fmoc-O-tent-butyl-threonine] | 7.2 min | –
CC(C)(C)O[C@H]([C@H](NC(=O)OCC1c2ccccc2-c2ccccc21)C(=O)O)C(F)(F)F [allo-L-tfT, (2S,3R)-4,4,4-trifluoro-N-Fmoc-O-tert-butyl-threonine] | 11.6 min | retention time difference ΔtR relative to allo-D-Thr/allo-L-Thr pair [2]: 4.2 min
